Calls of active or inactive are those of the source. No cut-off for these calls is given here.
Tests used:
Mus musculus [1] = assay: Toxicity in Balb/c mouse assessed as white blood cell count at 28.8 mg/kg, ig bid for 7 days (reference value: 7.7 +/- 0.65 10^9/L); format: organism-based; conditions: in vivo, po, 168 h
Mus musculus [2] = assay: Toxicity in Balb/c mouse assessed as hemoglobin count at 28.8 mg/kg, ig bid for 7 days (reference value: 143 +/- 11.9 g/L); format: organism-based; conditions: in vivo, po, 168 h
Mus musculus [3] = assay: Toxicity in Balb/c mouse assessed as hematocrit at 28.8 mg/kg, ig bid for 7 days (reference value: 40.5 +/- 3.5 %); format: organism-based; conditions: in vivo, po, 168 h
Rattus norvegicus [4] = organism: Rattus norvegicus; assay: Gastric toxicity in Sprague-Dawley rat assessed as gastric mucosal damage score treated for 49 days by hematoxylin and eosin staining based microscopic analysis; format: organism-based, Gastric mucosa; conditions: in vivo, 1176 h
Rattus norvegicus [5] = organism: Rattus norvegicus; assay: Gastric toxicity in Sprague-Dawley rat assessed as angiogenesis treated for 49 days by hematoxylin and eosin staining based microscopic analysis; format: organism-based; conditions: in vivo, 1176 h
Rattus norvegicus [6] = organism: Rattus norvegicus; assay: Gastric toxicity in Sprague-Dawley rat assessed as fibrotic changes treated for 49 days by hematoxylin and eosin staining based microscopic analysis; format: organism-based; conditions: in vivo, 1176 h
Rattus norvegicus [7] = assay: Anticoagulant activity in platelet-rich plasma isolated from Sprague-Dawley rat assessed as activated partial thromboplastin time at 20 mg/kg, ig bid for 7 days (reference value: 17.6 +/- 0.92 secs); format: functional
Rattus norvegicus [8] = assay: Antiplatelet activity in platelet-rich plasma isolated from Sprague-Dawley rat assessed as ADP-induced platelet aggregation at 20 mg/kg, ig bid for 7 days measured for 5 mins by light transmission aggregometry (reference value: 57.57 +/- 2.43 %); format: functional
Rattus norvegicus [9] = assay: Anticoagulant activity in platelet-rich plasma isolated from Sprague-Dawley rat assessed as prothrombin time at 20 mg/kg, ig bid for 7 days (reference value: 11.6 +/- 0.98 secs); format: functional
Rattus norvegicus [10] = assay: Anticoagulant activity in platelet-rich plasma isolated from Sprague-Dawley rat assessed as thrombin time at 20 mg/kg, ig bid for 7 days (reference value: 47.1 +/- 3.1 secs); format: functional
Rattus norvegicus [11] = assay: In vivo activation of coagulation factor8 in Sprague-Dawley rat at 20 mg/kg, ig bid for 7 days by automated coagulometry; format: functional, organism-based
Rattus norvegicus [12] = assay: In vivo activation of coagulation factor9 in Sprague-Dawley rat at 20 mg/kg, ig bid for 7 days by automated coagulometry; format: functional, organism-based
Rattus norvegicus [13] = assay: In vivo activation of coagulation factor10 in Sprague-Dawley rat at 20 mg/kg, ig bid for 7 days by automated coagulometry; format: functional, organism-based
Rattus norvegicus [14] = assay: In vivo activation of coagulation factor11 in Sprague-Dawley rat at 20 mg/kg, ig bid for 7 days by automated coagulometry; format: functional, organism-based
Rattus norvegicus [15] = assay: In vivo activation of coagulation factor12 in Sprague-Dawley rat at 20 mg/kg, ig bid for 7 days by automated coagulometry; format: functional, organism-based
Rattus norvegicus [16] = assay: Anti-thrombotic activity in Sprague-Dawley rat model of FeCl3-induced arterial thrombosis assessed as reduction in arterial thrombus length at 20 mg/kg, ig bid for 7 days by vernier caliper method; format: functional, organism-based
Rattus norvegicus [17] = assay: Anti-thrombotic activity in Sprague-Dawley rat model of FeCl3-induced arterial thrombosis assessed as reduction in arterial thrombus weight at 20 mg/kg, ig bid for 7 days; format: functional, organism-based
Rattus norvegicus [18] = assay: Anti-thrombotic activity in Sprague-Dawley rat model of FeCl3-induced venous thrombosis assessed as reduction in venous thrombus length at 46 mg/kg, ig bid for 7 days by vernier caliper method; format: functional, organism-based
Rattus norvegicus [19] = assay: Anti-thrombotic activity in Sprague-Dawley rat model of FeCl3-induced venous thrombosis assessed as reduction in venous thrombus weight at 46 mg/kg, ig bid for 7 days; format: functional, organism-based
Mus musculus [20] = assay: Toxicity in Balb/c mouse assessed as tail bleeding time at 28.8 mg/kg, ig bid for 7 days (reference value: 186 +/- 12 sec); format: organism-based; conditions: in vivo, po
Mus musculus [21] = assay: Toxicity in Balb/c mouse assessed as red blood cell count at 28.8 mg/kg, ig bid for 7 days (reference value: 7.55 +/- 0.59 10^12/L); format: organism-based; conditions: in vivo, po, 168 h
Mus musculus [22] = assay: Toxicity in Balb/c mouse assessed as platelet count at 28.8 mg/kg, ig bid for 7 days (reference value: 802 +/- 74 10^9/L); format: organism-based; conditions: in vivo, po, 168 h
Mus musculus [23] = assay: Toxicity in Balb/c mouse assessed as white blood cell count at 66.2 mg/kg, ig bid for 7 days (reference value: 7.7 +/- 0.65 10^9/L); format: organism-based; conditions: in vivo, po, 168 h
Mus musculus [24] = assay: Toxicity in Balb/c mouse assessed as hemoglobin count at 66.2 mg/kg, ig bid for 7 days (reference value: 143 +/- 11.9 g/L); format: organism-based; conditions: in vivo, po, 168 h
Mus musculus [25] = assay: Toxicity in Balb/c mouse assessed as hematocrit at 66.2 mg/kg, ig bid for 7 days (reference value: 40.5 +/- 3.5 %); format: organism-based; conditions: in vivo, po, 168 h
Rattus norvegicus [26] = assay: Antiplatelet activity in platelet-rich plasma isolated from Sprague-Dawley rat assessed as ADP-induced platelet aggregation at 46 mg/kg, ig bid for 7 days measured for 5 mins by light transmission aggregometry (reference value: 57.57 +/- 2.43 %); format: functional
Rattus norvegicus [27] = assay: Anticoagulant activity in platelet-rich plasma isolated from Sprague-Dawley rat assessed as activated partial thromboplastin time at 46 mg/kg, ig bid for 7 days (reference value: 17.6 +/- 0.92 secs); format: functional
Rattus norvegicus [28] = assay: Anticoagulant activity in platelet-rich plasma isolated from Sprague-Dawley rat assessed as prothrombin time at 46 mg/kg, ig bid for 7 days (reference value: 11.6 +/- 0.98 secs); format: functional
Rattus norvegicus [29] = assay: Anticoagulant activity in platelet-rich plasma isolated from Sprague-Dawley rat assessed as thrombin time at 46 mg/kg, ig bid for 7 days (reference value: 47.1 +/- 3.1 secs); format: functional
Mus musculus [30] = assay: Toxicity in Balb/c mouse assessed as red blood cell count at 66.2 mg/kg, ig bid for 7 days (reference value: 7.55 +/- 0.59 10^12/L); format: organism-based; conditions: in vivo, po, 168 h
Mus musculus [31] = assay: Toxicity in Balb/c mouse assessed as platelet count at 66.2 mg/kg, ig bid for 7 days (reference value: 802 +/- 74 10^9/L); format: organism-based; conditions: in vivo, po, 168 h

CC(=O)Oc1ccccc1C(=O)O [ASPIRIN]
Activity (Mus musculus [1]): 7.84 ×10⁹ /L | Activity (Mus musculus [2]): 150 g/L | Activity (Mus musculus [3]): 43.8% | UI (Rattus norvegicus [4]): 20.66 | Activity (Rattus norvegicus [5]): Toxic | Activity (Rattus norvegicus [6]): Toxic | APTT (Rattus norvegicus [7]): 18 s | Activity (Rattus norvegicus [8]): 28.85% | PT (Rattus norvegicus [9]): 10.5 s | TT (Rattus norvegicus [10]): 45.3 s | Activity (Rattus norvegicus [11]): inactive | Activity (Rattus norvegicus [12]): inactive | Activity (Rattus norvegicus [13]): inactive | Activity (Rattus norvegicus [14]): inactive | Activity (Rattus norvegicus [15]): inactive | Activity (Rattus norvegicus [16]): Active | Activity (Rattus norvegicus [17]): Active | Activity (Rattus norvegicus [18]): Active | Activity (Rattus norvegicus [19]): Active | Time (Mus musculus [20]): > 900 s | Activity (Mus musculus [21]): 7.62 ×10¹² /L | Activity (Mus musculus [22]): 651 ×10⁹ /L

C[C@@H]1CC[C@@]2(OC1)O[C@H]1C[C@H]3[C@@H]4CC=C5C[C@@H](O)CC[C@]5(C)[C@H]4CC[C@]3(C)[C@H]1[C@@H]2C [DISOGENIN]
Activity (Mus musculus [23]): 7.99 ×10⁹ /L | Activity (Mus musculus [24]): 137 g/L | Activity (Mus musculus [25]): 39.4% | UI (Rattus norvegicus [4]): 1.33 | Activity (Rattus norvegicus [5]): Non-toxic | Activity (Rattus norvegicus [6]): Non-toxic | Activity (Rattus norvegicus [26]): 49.14% | APTT (Rattus norvegicus [27]): 19.2 s | PT (Rattus norvegicus [28]): 15.2 s | TT (Rattus norvegicus [29]): 53.2 s | Activity (Mus musculus [30]): 7.45 ×10¹² /L | Activity (Mus musculus [31]): 788 ×10⁹ /L

Reference: ChEMBL document CHEMBL3813627, “Preventive effect of a novel diosgenin derivative on arterial and venous thrombosis in vivo” (Bioorg Med Chem Lett, 2016)
